# Experimental data taken from patent publication US9918931B2, “Method for providing a customized skin care product to a customer” (L'OREAL, priority 2016, dated 2018).
# Assay: Solubility of active ingredients in base oil composition
# Type: physicochemical
# Settings: active ingredient in base oil composition; loading without asterisk
compound,measurement,value
"O=C(O)c1ccccc1O [Salicylic Acid, reference compound]","Loading (wt %), soluble (not marked *)",3%
